In PMC2362044, “A potent nonporphyrin class of photodynamic therapeutic agent: cellular localisation, cytotoxic potential and influence of hypoxia” (British Journal of Cancer, 2005):
Read-outs that look alike come from different tables or passages of the source.

What was measured:
[1] = design: method as in Gorman et al, 2004; conditions: ref Gorman et al, 2004, cited from earlier work; for strong absorbance band: formulated in CrEL/PBS
[2] = test system: HeLa cells; assay: Flow cytometric assessment of apoptosis (Annexin-V/PI); format: cell-based, human
Experimental: (§1) Evaluation of apoptotic and necrotic cell populations was achieved using the ApoTarget Annexin-V FITC Apoptosis kit (BioSource International, Inc.). Cells (2.0 × 10^5) were seeded into 25 cm^2 flasks and treated with either ADPM01 or ADPM06 at respective EC50 or 10-fold EC50 concentration levels for 3 h, followed by irradiation with red light at 16 J cm^−2, as described above. Subsequently, cells were incubated for 4 and 16 h, with floating and adherent cells being collected at each time point by centrifugation and then stained with Annexin-V and propidium iodide (PI) as per the manufacturer's instructions. The percentage of cells at different phases of cell death, namely nonapoptotic (Annexin-V^−/PI^−), early apoptotic (Annexin-V^+/PI^−), and necrotic or late-stage apoptotic (Annexin-V^+/PI^+), was quantified using a EPICS XL-MCL flow cytometer (Coulter) and analysed using System II software, with at least 5000 cells being analysed for each run.

[3] = test system: MRC5 cells; assay: as above; format: cell-based, human
Experimental: as §1

[4] = test system: SW620 cells; assay: Colorimetric survival (MTT) assay after photo-irradiation, normoxia; format: cell-based; conditions: Homo sapiens, SW-620, SW620, 3 h incubation
Experimental: (§2) All cell lines unless otherwise stated were obtained from the American Type Culture Collection. HeLa, MRC5, HT-1080, MDA-MB-231, MCF-7 and T47-D cells were cultured in minimum essential medium (MEM) supplemented with 10% (v v^−1) foetal calf serum (FCS), 1% (v v^−1) non-essential amino acids, 50 U ml^−1 penicillin, 50 μg ml^−1 streptomycin, 20 mM HEPES and 1% (v v^−1) L-glutamine (Gibco-BRL). SW480, SW620 (obtained from Professor D Croke, Royal College of Surgeons, Dublin), A2780 and A2780cp70 cells (Obtained from Professor R Brown, Cancer Research UK, Beatson Laboratories, Glasgow) were cultured in RPMI-1640 medium plus the above-mentioned supplements. All cells were maintained in 5% CO2 (v v^−1) and 21% O2 (v v^−1) at 37°C unless otherwise stated.
(§3) Cells were seeded in 96-well flat-bottomed microtitre plates (5000 cells well^−1) and incubated at 37°C in a 5% CO2 incubator for 24 h. Cells were then incubated with varying concentrations of photosensitiser (1 × 10^−9 to 1 × 10^−4 M) in the dark for 3 h at 37°C. The ADPM compound-laden medium was then removed, the cells were washed with PBS and fresh culture medium was added to each well. This was followed by light irradiation with a broad-spectrum red light source (600–750 nm) via a Waldmann PDT1200L light delivery system. For this study, fluences (light exposures) of either 8 or 16 J cm^−2, at a dose rate of 80 mW cm^−2, were used. Following irradiation, the cells were incubated for a further 48 h before being assessed for cell viability by a standard MTT assay (Sigma). The subsequent colour change produced by viable cells was quantified using a plate reader (VICTOR^2 1420 multilabel HTS counter, Wallac). […] The dark toxicity of each compound was also assessed.
(§4) Prism ([…]) was used to graph the data obtained from the MTT assays and the uptake/clearance experiments. This program allows nonlinear regression analysis and the generation of sigmoidal dose–response curves. Prism also automatically calculates EC50 values. Statistical analysis was performed using the ANOVA test (Prism). Significant differences were detected using the Bonferroni multiple comparison test. P-values <0.05 were considered statistically significant.

[5] = test system: HeLa cells; assay: as above; format: cell-based; conditions: Homo sapiens, normoxia 21% oxygen, 3 h incubation
Experimental: as §2, §3, §4

[6] = test system: MRC-5 cells; assay: as above; format: cell-based; conditions: Homo sapiens, MRC5, MRC-5, normoxia 21% oxygen, 3 h incubation
Experimental: as §2, §3, §4

[7] = test system: MDA-MB-231 cells; assay: as above; format: cell-based; conditions: Homo sapiens, MDA-MB-231, 3 h incubation
Experimental: as §2, §3, §4

[8] = test system: T47-D cells; assay: as above; format: cell-based; conditions: Homo sapiens, T47D, 3 h incubation
Experimental: as §2, §3, §4

[9] = test system: A2780 cells; assay: as above; format: cell-based; conditions: Homo sapiens, A2780, 3 h incubation
Experimental: as §2, §3, §4

[10] = test system: SW480 cells; assay: as above; format: cell-based; conditions: Homo sapiens, SW480, 3 h incubation
Experimental: as §2, §3, §4

[11] = test system: A2780cp70 cells; assay: as above; format: cell-based; conditions: Homo sapiens, A2780/CP70, A2780cp70, 3 h incubation
Experimental: as §2, §3, §4

[12] = test system: HT-1080 cells; assay: as above; format: cell-based; conditions: Homo sapiens, HT-1080, 3 h incubation
Experimental: as §2, §3, §4

[13] = test system: MCF-7 cells; assay: as above; format: cell-based; conditions: Homo sapiens, MCF7, MCF-7, 3 h incubation
Experimental: as §2, §3, §4

[14] = 10-fold EC50 concentration, 16 h post-irradiation
[15] = EC50 concentration, 4 h post-irradiation
[16] = MRC5, 10-fold EC50 concentration, 16 h post-irradiation
[17] = MRC5, EC50 concentration, 4 h post-irradiation
[18] = 0 J cm^−2, read-out: EC50 (M) (dark)
[19] = 8 J cm^−2, read-out: EC50 (M) (8 J cm^−2)
[20] = 16 J cm^−2, read-out: EC50 (M) (16 J cm^−2)

F[B-]1(F)n2c(-c3ccccc3)cc(-c3ccccc3)c2N=C2C(c3ccccc3)=CC(c3ccccc3)=[N+]21 [ADPM01]
strong absorbance band [1]: 658 nm
fluorescence quantum yield (Φf) [1]: 0.34
cells in lower left quadrant (Annexin-V−/PI−, nonapoptotic) [2, 14]: 42.5%
cells in lower right quadrant (Annexin-V+/PI−, early apoptotic) [2, 14]: 16.5%
cells in upper left quadrant (PI+, Annexin-V−) [2, 14]: 1.0%
cells in upper right quadrant (Annexin-V+/PI+, necrotic or late-stage apoptotic) [2, 14]: 40.0%
cells in lower left quadrant (Annexin-V−/PI−, nonapoptotic) [2, 15]: 95.3%
cells in lower right quadrant (Annexin-V+/PI−, early apoptotic) [2, 15]: 4.40%
cells in upper left quadrant (PI+, Annexin-V−) [2, 15]: 0.16%
cells in upper right quadrant (Annexin-V+/PI+, necrotic or late-stage apoptotic) [2, 15]: 0.12%
cells in lower left quadrant (Annexin-V−/PI−, nonapoptotic) [3, 16]: 26.9%
cells in lower right quadrant (Annexin-V+/PI−, early apoptotic) [3, 16]: 31.8%
cells in upper left quadrant (PI+, Annexin-V−) [3, 16]: 0.5%
cells in upper right quadrant (Annexin-V+/PI+, necrotic or late-stage apoptotic) [3, 16]: 40.8%
cells in lower left quadrant (Annexin-V−/PI−, nonapoptotic) [3, 17]: 94.1%
cells in lower right quadrant (Annexin-V+/PI−, early apoptotic) [3, 17]: 3.82%
cells in upper left quadrant (PI+, Annexin-V−) [3, 17]: 0.84%
cells in upper right quadrant (Annexin-V+/PI+, necrotic or late-stage apoptotic) [3, 17]: 1.28%
EC50 [4, 18]: > 0.0001 M
EC50 [4, 19]: 5.6e-06 M
EC50 [4, 20]: 2.8e-06 M
EC50 [5, 18]: 2.7e-05 M
EC50 [5, 19]: 2.8e-06 M
EC50 [5, 20]: 9.2e-07 M
EC50 [6, 18]: > 0.0001 M
EC50 [6, 19]: 3.1e-06 M
EC50 [6, 20]: 5e-07 M
EC50 [7, 18]: 1.2e-05 M
EC50 [7, 19]: 5.6e-06 M
EC50 [7, 20]: 2.6e-07 M
EC50 [8, 18]: > 0.0001 M
EC50 [8, 19]: 5.6e-06 M
EC50 [8, 20]: 5.3e-06 M
EC50 [9, 18]: > 0.0001 M
EC50 [9, 19]: 5.1e-06 M
EC50 [9, 20]: 4.5e-06 M
EC50 [10, 18]: > 0.0001 M
EC50 [10, 19]: 7.6e-06 M
EC50 [10, 20]: 8e-07 M
EC50 [11, 18]: > 0.0001 M
EC50 [11, 19]: 6.8e-06 M
EC50 [11, 20]: 2.8e-06 M
EC50 [12, 18]: > 0.0001 M
EC50 [12, 19]: 3.4e-05 M
EC50 [12, 20]: 2.2e-05 M
EC50 [13, 18]: > 0.0001 M
EC50 [13, 19]: 3.4e-06 M
EC50 [13, 20]: 1.9e-06 M

COc1ccc(C2=[N+]3C(=Nc4c(-c5ccccc5)c(Br)c(-c5ccc(OC)cc5)n4[B-]3(F)F)C(c3ccccc3)=C2Br)cc1 [ADPM06]
strong absorbance band [1]: 683 nm
fluorescence quantum yield (Φf) [1]: 0.1
cells in lower left quadrant (Annexin-V−/PI−, nonapoptotic) [2, 14]: 42.3%
cells in lower right quadrant (Annexin-V+/PI−, early apoptotic) [2, 14]: 34.1%
cells in upper left quadrant (PI+, Annexin-V−) [2, 14]: 0.6%
cells in upper right quadrant (Annexin-V+/PI+, necrotic or late-stage apoptotic) [2, 14]: 23.0%
cells in lower left quadrant (Annexin-V−/PI−, nonapoptotic) [2, 15]: 95.6%
cells in lower right quadrant (Annexin-V+/PI−, early apoptotic) [2, 15]: 3.88%
cells in upper left quadrant (PI+, Annexin-V−) [2, 15]: 0.20%
cells in upper right quadrant (Annexin-V+/PI+, necrotic or late-stage apoptotic) [2, 15]: 0.30%
cells in lower left quadrant (Annexin-V−/PI−, nonapoptotic) [3, 16]: 28.6%
cells in lower right quadrant (Annexin-V+/PI−, early apoptotic) [3, 16]: 45.4%
cells in upper left quadrant (PI+, Annexin-V−) [3, 16]: 0.7%
cells in upper right quadrant (Annexin-V+/PI+, necrotic or late-stage apoptotic) [3, 16]: 25.3%
cells in lower left quadrant (Annexin-V−/PI−, nonapoptotic) [3, 17]: 95.9%
cells in lower right quadrant (Annexin-V+/PI−, early apoptotic) [3, 17]: 2.84%
cells in upper left quadrant (PI+, Annexin-V−) [3, 17]: 0.38%
cells in upper right quadrant (Annexin-V+/PI+, necrotic or late-stage apoptotic) [3, 17]: 0.88%
EC50 [4, 19]: 7.5e-08 M
EC50 [4, 20]: 6e-08 M
EC50 [5, 18]: > 0.0001 M
EC50 [5, 19]: 6.3e-08 M
EC50 [5, 20]: 4.1e-08 M
EC50 [6, 18]: > 0.0001 M
EC50 [6, 19]: 3.7e-08 M
EC50 [6, 20]: 1.4e-08 M
EC50 [7, 19]: 1.4e-07 M
EC50 [7, 20]: 7.5e-08 M
EC50 [8, 19]: 1.6e-06 M
EC50 [8, 20]: 6.3e-07 M
EC50 [9, 19]: 1e-07 M
EC50 [9, 20]: 3.5e-08 M
EC50 [10, 19]: 5.4e-06 M
EC50 [10, 20]: 4.2e-08 M
EC50 [11, 19]: 6.2e-08 M
EC50 [11, 20]: 2.7e-08 M
EC50 [12, 19]: 7.9e-08 M
EC50 [12, 20]: 3.7e-08 M
EC50 [13, 19]: 1.2e-07 M
EC50 [13, 20]: 7.5e-08 M
